Values after ≈ are worked out from the molar mass of the structure shown.
What was measured:
Type in all cases: cell-based
S. aureus UC9213 = experiment: MIC by standard agar dilution, S. aureus UC9213; settings: incubated overnight at 35° C.; for MIC: Staphylococcus aureus, UC9213, Mueller Hinton agar
Source text: (§1) The in vitro activity of compounds of the subject invention may be assessed by standard testing procedures such as the determination of minimum inhibitory concentration (MIC) by agar dilution as described in “Approved Standard. Methods for Dilution Antimicrobial Susceptibility Tests for Bacteria that Grow Aerobically,” 3rd ed., published 1993 by the National Committee for Clinical Laboratory standards, Villanova, Pa., USA.
(§2) The in vitro MICs of test compounds may be determined by a standard agar dilution method. A stock drug solution of each analog is prepared in a preferred solvent, usually DMSO:H2O (1:3). Serial 2-fold dilutions of each sample are made using 1.0 mL aliquots of sterile distilled water. To each 1.0 mL aliquot of drug is added 9 mL of molten Mueller Hinton agar medium. The drug-supplemented agar is mixed, poured into 15×100 mm petri dishes, and allowed to solidify and dry prior to inoculation.
(§3) Vials of each of the test organisms are maintained frozen in the vapor phase of a liquid nitrogen freezer. Test cultures are grown overnight at 35° C. on the medium appropriate for the organism. Colonies are harvested with a sterile swab, and cell suspensions are prepared in Trypticase Soy broth (TSB) to equal the turbidity of a 0.5 McFarland standard. A 1:20 dilution of each suspension is made in TSB. The plates containing the drug supplemented agar are inoculated with a 0.001 mL drop of the cell suspension using a Steers replicator, yielding approximately 10^4 to 10^5 cells per spot. The plates are incubated overnight at 35° C.
(§4) Following incubation the Minimum Inhibitory Concentration (MIC μg/mL), the lowest concentration of drug that inhibits visible growth of the organism, is read and recorded.

S. pneumoniae UC9912 = experiment: MIC by standard agar dilution, S. pneumoniae UC9912; settings: incubated overnight at 35° C.; for MIC: Streptococcus pneumoniae, UC9912, Mueller Hinton agar
Source text: as §1, §2, §3, §4

H. influenzae 30063 = experiment: MIC by standard agar dilution, H. influenzae 30063; settings: Mueller Hinton agar, incubated overnight at 35° C.; for MIC: Haemophilus influenzae, 30063, agar dilution, read-out: H. influenzae 30063 MIC
Source text: as §1, §2, §3, §4

CC(=O)NC[C@H]1CN(c2ccc([C@H]3[C@@H]4CN(c5nn[nH]n5)C[C@@H]43)c(F)c2)C(=O)O1 [Example 44, N-[((5S)-3-{3-fluoro-4-[exo-(1R,5S)-3-(2H-tetrazol-5-yl)-3-azabicyclo[3.1.0]hex-6-yl]phenyl}-2-oxo-1,3-oxazolidin-5-yl)methyl]acetamide]
MIC (S. aureus UC9213): 16 µg/mL (≈ 39.9 µM)
MIC (S. pneumoniae UC9912): 32 µg/mL (≈ 79.7 µM)
MIC (H. influenzae 30063): 64 µg/mL (≈ 159 µM)

CC(F)(F)C(=O)NC[C@H]1CN(c2ccc([C@H]3[C@@H]4CS(=O)(=O)C[C@@H]43)c(F)c2)C(=O)O1 [Example 55, 2,2-difluoro-N-[((5S)-3-{3-fluoro-4-[exo-(1R,5S)-3,3-dioxido-3-thiabicyclo[3.1.0]hex-6-yl]phenyl}-2-oxo-1,3-oxazolidin-5-yl)methyl]propanamide]
MIC (S. aureus UC9213): 8 µg/mL (≈ 18.5 µM)
MIC (S. pneumoniae UC9912): 2 µg/mL (≈ 4.63 µM)
MIC (H. influenzae 30063): 16 µg/mL (≈ 37 µM)

CN/C(=N\C#N)N1C[C@@H]2[C@H](C1)[C@H]2c1ccc(N2C[C@H](CNC(C)=O)OC2=O)cc1F [Example 73, exo-(1R,5S)-N′-cyano-6-(4-{(5S)-5-[(acetylamino)methyl]-2-oxo-1,3-oxazolidin-3-yl}-2-fluorophenyl)-N-methyl-3-azabicyclo[3.1.0]hexane-3-carboximidamide]
MIC (S. aureus UC9213): 2 µg/mL (≈ 4.83 µM)
MIC (S. pneumoniae UC9912): 1 µg/mL (≈ 2.41 µM)
MIC (H. influenzae 30063): 4 µg/mL (≈ 9.65 µM)

CC(F)(F)C(=O)NC[C@H]1CN(c2cc(F)c([C@H]3[C@@H]4CS(=O)(=O)C[C@@H]43)c(F)c2)C(=O)O1 [Example 60, 2,2-difluoro-N-[((5S)-3-{3,5-difluoro-4-[exo-(1R,5S)-3,3-dioxido-3-thiabicyclo[3.1.0]hex-6-yl]phenyl}-2-oxo-1,3-oxazolidin-5-yl)methyl]propanamide]
MIC (S. aureus UC9213): 8 µg/mL (≈ 17.8 µM)
MIC (S. pneumoniae UC9912): 2 µg/mL (≈ 4.44 µM)
MIC (H. influenzae 30063): 16 µg/mL (≈ 35.5 µM)

O=C(CO)N1C[C@@H]2[C@H](C1)[C@H]2c1ccc(N2C[C@H](CNC(=S)C(F)F)OC2=O)cc1F [Example 6, 2,2-difluoro-N-[((5S)-3-{3-fluoro-4-[exo-(1R,5S)-3-gycoloyl-3-azabicyclo[3.1.0]hex-6-yl]phenyl}-2-oxo-1,3-oxazolidin-5-yl)methyl]ethanethioamide]
MIC (S. aureus UC9213): 0.5 µg/mL (≈ 1.13 µM)
MIC (S. pneumoniae UC9912): 0.25 µg/mL (≈ 0.564 µM)
MIC (H. influenzae 30063): 4 µg/mL (≈ 9.02 µM)

CCC(=O)NC[C@H]1CN(c2ccc([C@H]3[C@@H]4CN(C(=O)COC)C[C@@H]43)c(F)c2)C(=O)O1 [Example 27, N-[((5S)-3-{3-fluoro-4-[exo-(1R,5S)-3-methoxyacetyl-3-azabicyclo[3.1.0]hex-6-yl]phenayl}-2-oxo-1,3-oxazolidin-5-yl)methyl]propanamide]
MIC (S. aureus UC9213): 2 µg/mL (≈ 4.77 µM)
MIC (S. pneumoniae UC9912): 0.5 µg/mL (≈ 1.19 µM)
MIC (H. influenzae 30063): 8 µg/mL (≈ 19.1 µM)

CC(=O)NC[C@H]1CN(c2ccc([C@H]3[C@@H]4COC[C@@H]43)cc2)C(=O)O1 [Example 16, N-[((5S)-3-{4-[exo-(1R,5S)-3-oxabicyclo[3.1.0]hex-6-yl]phenyl}-2-oxo-1,3-oxazolidin-5-yl)methyl]acetamide]
MIC (S. aureus UC9213): 4 µg/mL (≈ 12.6 µM)
MIC (S. pneumoniae UC9912): 2 µg/mL (≈ 6.32 µM)
MIC (H. influenzae 30063): 16 µg/mL (≈ 50.6 µM)

CC(=O)NC[C@H]1CN(c2ccc([C@H]3[C@@H]4CN(C(N)=O)C[C@@H]43)c(F)c2)C(=O)O1 [Example 10, exo-(1R,5S)-6-(4-{(5S)-5-[(acetylamino)methyl]-2-oxo-1,3-oxazolidin-3-yl}-2-fluorophenyl)-3-azabicyclo[3.1.0]hexane-3-carboxamide]
MIC (S. aureus UC9213): 2 µg/mL (≈ 5.31 µM)
MIC (S. pneumoniae UC9912): 0.5 µg/mL (≈ 1.33 µM)
MIC (H. influenzae 30063): 4 µg/mL (≈ 10.6 µM)

N-[((5S)-3-{3-fluoro-4-[exo-(1R,5S)-3-(1-methyl-1H-tetrazol-5-yl)-3-azabicyclo[3.1.0]hex-6-yl]phenyl}-2-oxo-1,3-oxazolidin-5-yl)methyl]acetamide [Example 45]
S. aureus UC9213 MIC (S. aureus UC9213; Mueller Hinton agar): 4 µg/mL
S. pneumoniae UC9912 MIC (S. pneumoniae UC9912; Mueller Hinton agar): 4 µg/mL
H. influenzae 30063 MIC (H. influenzae 30063; agar dilution): 16 µg/mL

N#CCC(=O)NC[C@H]1CN(c2cc(F)c([C@H]3[C@@H]4CS(=O)(=O)C[C@@H]43)c(F)c2)C(=O)O1 [Example 71, 2-cyano-N-[((5S)-3-{3,5-difluoro-4-[exo-(1R,5S)-3,3-dioxide-3-thiabicyclo[3.1.0]hex-6-yl]phenyl}-2-oxo-1,3-oxazolidin-5-yl)methyl]acetamide]
MIC (S. aureus UC9213): 4 µg/mL (≈ 9.4 µM)
MIC (S. pneumoniae UC9912): 2 µg/mL (≈ 4.7 µM)
MIC (H. influenzae 30063): 4 µg/mL (≈ 9.4 µM)

CCC(=O)NC[C@H]1CN(c2ccc([C@H]3[C@@H]4CS(=O)(=O)C[C@@H]43)c(F)c2)C(=O)O1 [Example 51, N-[((5S)-3-{4-[exo-(1R,5S)-3,3-dioxido-3-thiabicyclo[3.1.0]hex-6-yl]-3-fluorophenyl}-2-oxo-1,3-oxazolidin-5-yl)methyl]propanamide]
MIC (S. aureus UC9213): 2 µg/mL (≈ 5.04 µM)
MIC (S. pneumoniae UC9912): 1 µg/mL (≈ 2.52 µM)
MIC (H. influenzae 30063): 8 µg/mL (≈ 20.2 µM)

CCC(=O)NC[C@H]1CN(c2ccc([C@H]3[C@@H]4CN(C=O)C[C@@H]43)c(F)c2)C(=O)O1 [Example 22, N-[((5S)-3-{3-fluoro-4-[exo-(1R,5S)-3-formyl-3-azabicyclo[3.1.0]hex-6-yl]phenyl}-2-oxo-1,3-oxazolidin-5-yl)methyl]propanamide]
MIC (S. aureus UC9213): 1 µg/mL (≈ 2.66 µM)
MIC (S. pneumoniae UC9912): 0.5 µg/mL (≈ 1.33 µM)
MIC (H. influenzae 30063): 8 µg/mL (≈ 21.3 µM)

O=C(NC[C@H]1CN(c2ccc([C@H]3[C@@H]4CS(=O)(=O)C[C@@H]43)c(F)c2)C(=O)O1)C1CCC1 [Example 57, N-[((5S)-3-{3-fluoro-4-[exo-(1R,5S)-3,3-dioxido-3-thiabicyclo[3.1.0]hex-6-yl]phenyl}-2-oxo-1,3-oxazolidin-5-yl)methyl]cyclobutanecarboxamide]
MIC (S. aureus UC9213): 8 µg/mL (≈ 18.9 µM)
MIC (S. pneumoniae UC9912): 2 µg/mL (≈ 4.73 µM)
MIC (H. influenzae 30063): 32 µg/mL (≈ 75.7 µM)

CC(=O)NC[C@H]1CN(c2ccc([C@H]3[C@@H]4CN(C(=O)[C@@H]5CCCO5)C[C@@H]43)c(F)c2)C(=O)O1 [Example 42, N-[((5S)-3-{3-fluoro-4-[exo-(1R,5S)-3-(tetrahydrofaran-2-(S)-carbonyl)-3-azabicyclo[3.1.0]hex-6-yl]phenyl}-2-oxo-1,3-oxazolidin-5-yl)methyl]acetamide]
MIC (S. aureus UC9213): 8 µg/mL (≈ 18.5 µM)
MIC (S. pneumoniae UC9912): 4 µg/mL (≈ 9.27 µM)
MIC (H. influenzae 30063): 32 µg/mL (≈ 74.2 µM)

CC(=O)NC[C@H]1CN(c2ccc(N3CCOCC3)c(F)c2)C(=O)O1 [linezolid, reference compound]
MIC (S. aureus UC9213): 4 µg/mL (≈ 11.9 µM)
MIC (S. pneumoniae UC9912): 1 µg/mL (≈ 2.96 µM)
MIC (H. influenzae 30063): 16 µg/mL (≈ 47.4 µM)

O=C(NC[C@H]1CN(c2ccc([C@H]3[C@@H]4C[S+]([O-])C[C@@H]43)c(F)c2)C(=O)O1)C1CC1 (stereo partly drawn) [Example 52, N-[((5S)-3-{3-fluoro-4-[exo-(1R,5S)-3-oxido-3-thiabicyclo[3.1.0]hex-6-yl]phenyl}-2-oxo-1,3-oxazolidin-5-yl)methyl]cyclopropanecarboxamide]
MIC (S. aureus UC9213): 4 µg/mL (≈ 10.2 µM)
MIC (S. pneumoniae UC9912): 1 µg/mL (≈ 2.55 µM)
MIC (H. influenzae 30063): 4 µg/mL (≈ 10.2 µM)

CC(=O)NC[C@H]1CN(c2ccc([C@H]3[C@@H]4C[S+]([O-])C[C@@H]43)c(F)c2)C(=O)O1 (stereo partly drawn) [Example 2, N-[((5S)-3-{3-fluoro-4-[exo-(1R,5S)-3-oxido-3-thiabicyclo[3.1.0]hex-6-yl]phenyl}-2-oxo-1,3-oxazolidin-5-yl)methyl]acetamide]
MIC (S. aureus UC9213): 2 µg/mL (≈ 5.46 µM)
MIC (S. pneumoniae UC9912): 0.25 µg/mL (≈ 0.682 µM)
MIC (H. influenzae 30063): 2 µg/mL (≈ 5.46 µM)

CC(=O)NC[C@H]1CN(c2ccc([C@H]3[C@@H]4CN(N(C)C)C[C@@H]43)c(F)c2)C(=O)O1 [Example 49, N-[((5S)-3-{3-fluoro-4-[exo-(1R,5S)-3-dimethylamino-3-azabicyclo[3.1.0]hex-6-yl]phenyl}-2-oxo-1,3-oxazolidin-5-yl)methyl]acetamide]
MIC (S. aureus UC9213): > 64 µg/mL
MIC (S. pneumoniae UC9912): > 64 µg/mL
MIC (H. influenzae 30063): > 64 µg/mL

CC(=O)NC[C@H]1CN(c2ccc([C@H]3[C@@H]4CN(C(=O)[C@H]5CCCO5)C[C@@H]43)c(F)c2)C(=O)O1 [Example 41, N-[((5S)-3-{3-fluoro-4-[exo-(1R,5S)-3-(tetrahydrofuran-2-(R)-carbonyl)-3-azabicyclo[3.1.0]hex-6-yl]phenyl}-2-oxo-1,3-oxazolidin-5-yl)methyl]acetamide]
MIC (S. aureus UC9213): 4 µg/mL (≈ 9.27 µM)
MIC (S. pneumoniae UC9912): 2 µg/mL (≈ 4.64 µM)
MIC (H. influenzae 30063): 32 µg/mL (≈ 74.2 µM)

CC(=O)NC[C@H]1CN(c2ccc([C@H]3[C@@H]4CS(=O)(=O)C[C@@H]43)c(F)c2)C(=O)O1 [Example 3, N-[((5S)-3-{4-[exo-(1R,5S)-3,3-dioxido-3-thiabicyclo[3.1.0]hex-6-yl]-3-fluorophenyl}-2-oxo-1,3-oxazolidin-5-yl)methyl]acetamide]
MIC (S. aureus UC9213): 2 µg/mL (≈ 5.23 µM)
MIC (S. pneumoniae UC9912): 0.25 µg/mL (≈ 0.654 µM)
MIC (H. influenzae 30063): 4 µg/mL (≈ 10.5 µM)

CC(=O)NC[C@H]1CN(c2ccc([C@H]3[C@@H]4COC[C@@H]43)c(F)c2)C(=O)O1 [Example 4, N-[((5S)-3-{3-fluoro-4-[exo-(1R,5S)-3-oxabicyclo[3.1.0]hex-6-yl]phenyl}-2-oxo-1,3-oxazolidin-5-yl)methyl]acetamide]
MIC (S. aureus UC9213): 4 µg/mL (≈ 12 µM)
MIC (S. pneumoniae UC9912): 0.5 µg/mL (≈ 1.5 µM)
MIC (H. influenzae 30063): 4 µg/mL (≈ 12 µM)

CC(=O)NC[C@H]1CN(c2ccc([C@H]3[C@@H]4CN(C(=O)CO)C[C@@H]43)cc2)C(=O)O1 [Example 17, N-[((5S)-3-{4-[exo-(1R,5S)-3-glycoloyl-3-azabicyclo[3.1.0]hex-6-yl]phenyl}-2-oxo-1,3-oxazolidin-5-yl)methyl]acetamide]
MIC (S. aureus UC9213): 4 µg/mL (≈ 10.7 µM)
MIC (S. pneumoniae UC9912): 2 µg/mL (≈ 5.36 µM)
MIC (H. influenzae 30063): 8 µg/mL (≈ 21.4 µM)

Source: patent publication US7279494B2, “Antimicrobial [3.1.0] bicyclohexylphenyl-oxazolidinone derivatives and analogues” (Pfizer Inc., priority 2003, dated 2007)
